Source: patent publication US20240287138A1, “CYCLIC PEPTIDES FOR INHIBITING TNF RECEPTOR 1 ACTIVITY” (Merck Sharp & Dohme LLC, priority 2023, published 2024)
Numbered stars: 1 amine (or outer) side, 2 acyl side, 3 side chain; on linkers, the order of the positions; unused ones are H or OH. Bridge positions count the residues as written; N and C are the ends. Square brackets hold non-standard residues; d marks the D form. Peptide text beside a SMILES is read from it. Trp(βS-Me,7-OMe) = COc1cccc2c([C@H](C)[C@H](N)C(=O)O)c[nH]c12; Trp(7-Cl) = N[C@@H](Cc1c[nH]c2c(Cl)cccc12)C(=O)O; Phe(4-CONH2) = NC(=O)c1ccc(C[C@H](N)C(=O)O)cc1; Phe(4-COOH) = N[C@@H](Cc1ccc(C(=O)O)cc1)C(=O)O; Trp(7-aza) = N[C@@H](Cc1c[nH]c2ncccc12)C(=O)O; Phe(4-CH2NH2) = NCc1ccc(C[C@H](N)C(=O)O)cc1; Pip(5R-OH) = O=C(O)[C@@H]1CC[C@@H](O)CN1; X1 = O=C([C@@H]1CC[C@H](N[*:1])C1)[*:2]; Pip(4-aza) = O=C(O)[C@@H]1CNCCN1; 4Pal = N[C@@H](Cc1ccncc1)C(=O)O; NMeE = CN[C@@H](CCC(=O)O)C(=O)O; Pip = O=C(O)[C@@H]1CCCCN1; αMeS = C[C@](N)(CO)C(=O)O; Nle = CCCC[C@H](N)C(=O)O; Nme = COCCNCC(=O)O; Sar = CNCC(=O)O

Columns and labels:
[1] = biological target: T1, TNFα-induced NF-κB signal transduction pathway (TNFR1 signaling) in THP-1 cells (Homo sapiens, UniProt P19438); test: THP-1 Lucia NF-κB reporter cell assay, inhibition of TNFα-induced NF-κB signaling; type: cell-based; settings: THP-1 NF-κB Lucia reporter cells, 10 ng/mL TNFα, 16-18 h, secreted luciferase; read-out: THP-1 IC50
T1 sequence (P19438 30-455): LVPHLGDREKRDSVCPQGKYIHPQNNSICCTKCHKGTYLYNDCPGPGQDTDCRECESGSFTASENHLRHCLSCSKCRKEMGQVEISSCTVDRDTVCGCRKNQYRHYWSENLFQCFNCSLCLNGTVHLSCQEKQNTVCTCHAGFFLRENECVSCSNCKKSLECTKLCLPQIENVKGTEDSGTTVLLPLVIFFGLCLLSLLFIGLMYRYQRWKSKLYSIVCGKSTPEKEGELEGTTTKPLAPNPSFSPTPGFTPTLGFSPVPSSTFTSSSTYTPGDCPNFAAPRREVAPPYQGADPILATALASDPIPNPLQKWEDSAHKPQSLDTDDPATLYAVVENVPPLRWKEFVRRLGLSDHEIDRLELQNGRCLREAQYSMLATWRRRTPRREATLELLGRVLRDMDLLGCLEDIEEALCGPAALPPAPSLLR
Outline: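 THP-1 Lucia NF-κB cells, 20k/well, no selection antibiotics; peptide pre-inc 1 h 37 °C; + recombinant human TNFα 10 ng/mL final; o.n.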

[2] = biological target: T2, human TNFR2 ECD protein (Homo sapiens, UniProt P20333); test: SPR off-target binding (selectivity) to human TNFR2 ECD
T2 construct: HRV 3C protease cleavage site (C); 6His (C, cleaved yes); made in house; host or cells: Sf21 insect cells (baculovirus), secreted
T2 sequence (P20333 23-257): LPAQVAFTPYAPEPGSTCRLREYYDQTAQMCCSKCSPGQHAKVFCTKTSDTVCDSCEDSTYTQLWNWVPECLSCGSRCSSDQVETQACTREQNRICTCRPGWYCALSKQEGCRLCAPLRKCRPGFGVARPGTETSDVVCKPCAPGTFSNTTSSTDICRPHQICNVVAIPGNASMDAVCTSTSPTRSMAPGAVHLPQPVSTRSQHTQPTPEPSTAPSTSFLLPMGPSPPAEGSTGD
Protocol: (§1) B. Procedure for Binding Affinity and Selectivity measured by SPR
(§2) Affinity and selectivity for hTNFR1 and TNFR2 was determined using SPR. Human TNFR1 or TNFR2 genes (extracellular domain only) were synthesized with a C-terminal Avi-tag, HRV 3C protease cleavage site followed by a 6His-tag for affinity purification. The final gene product was cloned into pBAC™-1 vector (Millipore Sigma) for expression testing in insect cells. Constructs were transfected into Sf21 cells for baculovirus generation followed by protein expression analysis in Sf21 and Tni cell lines. Large scale expression in Sf21 cells was performed using baculovirus infected insect cells (BIICs) infected at a MOI=2.0 grown for 72 h. Target proteins secreted into the media were harvested via centrifugation and concentrated using diafiltration. TNFR was purified by immobilized metal ion affinity chromatography (IMAC) using a Ni-Sepharose HisTrap™ column (Cytiva™). Isolated TNFR had His tag removed using HRV 3C protease followed by additional purification using Ni-NTA chromatography. Biotinylation was performed on Ni-NTA flow-through fractions concentrated to 45 μM and treated with BirA ligase (1:100, μg/μg ratio) in 50 mM Tris pH 7.5, 150 mM NaCl, 50 μM biotin, 10 mM magnesium acetate, 10 mM ATP at 4° C. for 20 h. Final purification of biotin-TNFR and buffer exchange into 20 mM HEPES pH 7.5, 150 mM NaCl was performed using a HiLoad® Superdex® 200 26/60 column (Cytiva™). Highly purified protein was aliquoted and stored at −80° C.
(§3) The SPR assay uses a Cytiva™ 8K or 8K+ biosensor instrument to measure the kinetics of peptide analytes binding to captured human TNFR1 extracellular domain (ECD) protein; peptide analytes are also evaluated for any off-target binding to human TNFR2 ECD protein in parallel. Recombinant human TNFR1 ECD and human TNFR2 ECD proteins, biotinylated via engineered C-terminal avi-tags, are immobilized to a regenerable streptavidin biosensor chip surface (Cytiva™ Biotin CAPture kit, Series S; cat. #28920234). Peptide analytes binding to immobilized human TNFR1 ECD protein and their subsequent dissociation are conducted in a buffer of 10 mM HEPES pH 7.4, 150 mM NaCl, 3 mM EDTA, 0.05% P20,2% DMSO under laminar flow conditions and measured in response units (RU), which are directly proportional to the accumulated mass on the surface of the biosensor chip; the biosensor chip surface is regenerated via Cytiva™ proprietary methods between the evaluation of each peptide analyte. […] The SPR assay determines the association and dissociation rate constants, kon and koff, for each peptide analyte and, from these values, calculates the binding affinity, […] reported in Table 2.

[3] = biological target: T3, human TNFR1 extracellular domain (ECD) protein (Homo sapiens, UniProt P19438); test: SPR binding affinity to captured human TNFR1 ECD
T3 construct: HRV 3C protease cleavage site (C); 6His (C, cleaved yes); made in house; host or cells: Sf21 insect cells (baculovirus), secreted
T3 sequence (P19438 30-211): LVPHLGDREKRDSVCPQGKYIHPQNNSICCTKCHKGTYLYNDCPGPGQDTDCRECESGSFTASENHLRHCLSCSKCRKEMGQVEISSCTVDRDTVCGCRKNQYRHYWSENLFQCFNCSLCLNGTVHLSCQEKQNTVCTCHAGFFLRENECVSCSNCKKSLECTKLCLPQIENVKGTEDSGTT
Protocol: as §1, §2, §3

SMILES	IC50 [1]	Kd [2]	Kd [3]
CCCC[C@@H]1NC(=O)CSC[C@@H](C(N)=O)NC(=O)[C@H]([C@@H](C)c2c[nH]c3c(OC)cccc23)NC(=O)CN(C)C(=O)[C@H](Cc2ccc(O)cc2)NC(=O)[C@H](Cc2ccc(C(=O)O)cc2)NC(=O)[C@](C)(CO)NC(=O)[C@H](Cc2c[nH]c3c(Cl)cccc23)NC(=O)[C@H](Cc2ccncc2)NC(=O)[C@H](CC(N)=O)NC(=O)CN(CCOC)C(=O)[C@H](Cc2c[nH]c3ncccc23)NC(=O)[C@@H]2CCCCN2C(=O)[C@H](Cc2ccncc2)NC1=O [SEQ ID NO. 62] ({CH2CO}-[Nle][4Pal][Pip][Trp(7-aza)][Nme]N[4Pal][Trp(7-Cl)][αMeS][Phe(4-COOH)]Y[Sar][Trp(βS-Me,7-OMe)]C-NH2; thioether N-14)	4.4 nM	> 1000 nM	–
CCCC[C@@H]1NC(=O)[C@@H]2CC[C@@H](C2)NC(=O)[C@H]([C@@H](C)c2c[nH]c3c(OC)cccc23)NC(=O)CN(C)C(=O)[C@H](Cc2ccc(O)cc2)NC(=O)[C@H](Cc2ccc(C(=O)O)cc2)NC(=O)[C@](C)(CO)NC(=O)[C@H](Cc2c[nH]c3c(Cl)cccc23)NC(=O)[C@H](Cc2ccncc2)NC(=O)[C@H](CC(N)=O)NC(=O)CN(CCOC)C(=O)[C@H](Cc2c[nH]c3ccccc23)NC(=O)[C@@H]2CNCCN2C(=O)[C@H](Cc2ccncc2)NC1=O [SEQ ID NO. 82] (cyclo([4Pal][Trp(7-Cl)][αMeS][Phe(4-COOH)]Y[Sar][Trp(βS-Me,7-OMe)][X1][Nle][4Pal][Pip(4-aza)]W[Nme]N))	–	> 1000 nM	0.07 nM
CCCC[C@@H]1NC(=O)CSC[C@@H](C(N)=O)NC(=O)[C@H]([C@@H](C)c2c[nH]c3c(OC)cccc23)NC(=O)CN(C)C(=O)[C@H](Cc2ccc(O)cc2)NC(=O)[C@H](Cc2ccc(C(=O)O)cc2)NC(=O)[C@](C)(CO)NC(=O)[C@H](Cc2c[nH]c3c(Cl)cccc23)NC(=O)[C@H](Cc2ccc(CN)cc2)NC(=O)[C@H](CC(N)=O)NC(=O)[C@H](CCC(=O)O)N(C)C(=O)[C@H](Cc2c[nH]c3ccccc23)NC(=O)[C@@H]2CC[C@@H](O)CN2C(=O)[C@H](Cc2ccncc2)NC1=O [SEQ ID NO. 96] ({CH2CO}-[Nle][4Pal][Pip(5R-OH)]W[NMeE]N[Phe(4-CH2NH2)][Trp(7-Cl)][αMeS][Phe(4-COOH)]Y[Sar][Trp(βS-Me,7-OMe)]C-NH2; thioether N-14)	1.6 nM	> 1000 nM	–
CCCC[C@@H]1NC(=O)CSC[C@@H](C(N)=O)NC(=O)[C@H]([C@@H](C)c2c[nH]c3c(OC)cccc23)NC(=O)CN(C)C(=O)[C@H](Cc2ccc(C(N)=O)cc2)NC(=O)[C@H](Cc2ccc(C(=O)O)cc2)NC(=O)[C@](C)(CO)NC(=O)[C@H](Cc2c[nH]c3c(Cl)cccc23)NC(=O)[C@H](Cc2ccncc2)NC(=O)[C@H](CC(N)=O)NC(=O)[C@H](CCC(=O)O)N(C)C(=O)[C@H](Cc2c[nH]c3ccccc23)NC(=O)[C@@H]2CNCCN2C(=O)[C@H](Cc2ccncc2)NC1=O [SEQ ID NO. 124] ({CH2CO}-[Nle][4Pal][Pip(4-aza)]W[NMeE]N[4Pal][Trp(7-Cl)][αMeS][Phe(4-COOH)][Phe(4-CONH2)][Sar][Trp(βS-Me,7-OMe)]C-NH2; thioether N-14)	–	> 1000 nM	0.12 nM
